# Data from patent US12331042B2, “Compounds suitable for the treatment and prophylaxis of muscle wasting and other conditions” (priority 2019, dated 2025).
# Key:
# MuRF1 central fragment = test: Differential scanning fluorimetry (DSF) of MuRF1 central fragment; format: binding; conditions: 100 μM compound, 1% DMSO in PBS, 75 μM protein; 65.8° C. with 1% DMSO alone
# Procedure: The effect of compound MyoMed-946 on MuRF1 protein stability was determined in vitro by differential scanning fluorimetry (DSF).
# “MuRF1 central fragment” was expressed as previously described (Mrosek M et al., FASEB J, 2007, 21, 1383-1392) and used in DSF experiments at 75 μM final concentration. Compound MyoMed-946 was diluted from a 10 mM stock in DMSO to 100 μM in PBS as DSF assay buffer, resulting in a final concentration of 1% DMSO. After 1 hour pre-incubation at room temperature, the aqueous protein solutions were soaked into capillaries and placed into a Prometheus NT.48 nanoDSF device (NanoTemper Technologies, Munich, Germany). Changes in the intrinsic tryptophan or tyrosine fluorescence that occurred after LED laser excitement upon protein unfolding in a thermal gradient was detected at 330 nm and 350 nm, respectively. […] The first derivative of the fluorescence wavelength ratio of 350/330 nm upon thermal protein unfolding was used to calculate transition midpoint (Tm) of single and multiple transition states.
# [1] = test system: C57/BL6 mice with LAD ligation (CHF); test: Myocardial infarction LAD mouse model (CHF, HFrEF); format: in vivo; conditions: 0.1% compound in chow
# Procedure: A myocardial infarction mouse model suffering from a heart failure with reduced ejection fraction (HFrEF) was generated by ligating the left anterior […] coronary artery (LAD) as described below to induce an acute myocardial infarction (MI) followed by the development of a chronic (systolic) heart failure (CHF).
# A small animal surgery was carried out on C57/BL6 mice at 12 weeks of age in the Leipzig Heart Center following established and well known procedures in the field (see for example Bowen et al., J Appl Physiol, 2015, 118, 11-19; Mangner et al., J Cachexia Sarcopenia Muscle, 2015, 6, 381-390). Briefly, mice from the LAD group were anesthetized by i.p. injection of MMF; Medetomidin (0.5 mg/kg body weight), Midazolam (5.0 mg/kg body weight), Fentanyl (0.05 mg/kg body weight). Unconscious mice were fixed on an operation table. Ventral parts of the thorax were shaved, washed and sterilized. Unconscious mice were then intubated and ventilated with normal room air, using an animal respirator (TSE GmbH, Siemensstr. 21, 61352 Bad Homburg; product: http://tinateb.com/wp-content/uploads/2016/06/TSE_Respirator-Compact_20080724_HR.pdf). For LAD operation, the thorax was opened about 1 cm above the Processus xiphoideus and about 1 cm left parasternally by dissecting the skin here. The below located M. pectoralis was moved to the sides without further injury to access the thorax wall. The intercostal muscles between two ribs were moved to the side without breaking the ribs. The thereby created intrathoracic access was widened by a surgical spreader inserted above the pericardium. The pericardium was opened surgically stump by using two anatomical forceps. The thymus, if present in the surgical field, was pushed to the side with a surgical swab to gain access to the aortic root. The heart was carefully moved out of the pericardium using a hook, and the left atrium was put to the side with a surgical swab. The LAD was then ligated with a 5.0 Prolene suture (Ethicon, see http://www.ethicon.com/healthcare-professionals/products/wound-closure/non-absorbable-sutures/prolene-polypropylene). The ligation was made close to the aortic root, and the suture was tightened until paleness of the coronary artery anterior wall was noted. After ligation, the thorax wall and then the skin were closed by a single button seam using a 4.0 Prolene suture (company: Ethicon).
# As a control, sham operations were performed. For the sham control group, the procedure followed was exactly the same as described above, except that the 5.0 prolene suture was only loosely out around the LAD without tightening.
# The operation is ended by extubation, and antagonizing the anesthesia by i.p. injection of Atipamezol (2.5 mg/kg body weight) and Flumazenil (0.5 mg/kg body weight). Mice were put onto a warming mate until waking up, and then were transferred back to animal cages. The time for the whole procedure above by expert staff was around 30 min.
# One week after LAD ligation, echocardiography was performed in M-mode to confirm MI, i.e. the left ventricular end-diastolic (LVEDD) and systolic (LVESD) diameters were assessed to allow calculation of left ventricular (LV) fractional shortening (LVFS=[LVEDD_LVESDLVEDD]×100). Only mice with a large infarct (left ventricular ejection fraction (LVEF)<20%) were subsequently randomized into two groups, i.e. one group receiving normal chow (CHF, n=11) and a second group receiving chow supplemented with compound (0.1% of compound MyoMed-946, CHF+MyoMed-946, n=12). Sham operated animals received only normal chow (n=15). Nine weeks later, echocardiography was performed again.
# The animals were sacrificed to collect tissues, in particular diaphragm tissue, for functional and molecular characterization. All experiments and procedures were approved by the local Animal Research Council, University of Leipzig, and the Landesbehörde Sachsen (TVV 36/15).
# [2] = Storage stability at room temperature (NMR, LC-MS); format: physicochemical; conditions: several months storage at room temperature; confirmed via NMR and LC-MS
# From the text: [2-(2-Furylmethylcarbamoylamino)-2-oxo-ethyl]
# [3] = test system: diaphragm fiber bundle of MCT mice; test: Contractile function of diaphragm fiber bundles, MCT mice; format: in vivo; conditions: MCT mice fed compound vs MCT; MCT impairs by around 20% vs sham
# Procedure: To provide a direct functional assessment, the contractility in skeletal muscle fiber bundles, i.e. fibre bundle from the diaphragm of MCT mice and CIF mice, was measured as follows. A fiber bundle from the diaphragm was isolated to allow in vitro contractile function to be assessed using a length-controlled lever system (301B, Aurora Scientific Inc., Aurora, Canada), as described by Bowen et al., FASEB J, 2017, 31. Briefly, a muscle bundle was mounted vertically in a buffer-filled organ bath (˜22° C.), set at optimal length, and after 15 min was stimulated over a force-frequency protocol between 1-300 Hz (600 mA; 500 ms train duration; 0.25 ms pulse width). […] Shortening velocity was determined 10 ms after the first change in length and on the linear section of the transient (DMA software, Aurora Scientific). Force (N) was normalized to muscle cross-sectional area (CSA; cm^2) by dividing muscle mass (g) by the product of Lo (cm) and estimated muscle density (1.06), which allowed specific force in N/cm^2 to be calculated. Shortening velocity was normalized to optimal muscle length (in Lo/s), while power was calculated for each load as the product of shortening velocity and specific force (in W/cm^2).
# [4] = after 10 weeks of intervention, n = 12
# [5] = after 10 weeks, echocardiography
compound,measurement,setting,value
"Cc1cc(=O)oc2cc(OCc3ccc(C(=O)OCC(=O)NC(=O)NCc4ccco4)cc3)ccc12 [MyoMed-946, [2-(2-furylmethylcarbamoylamino)-2-oxo-ethyl] 4-[(4-methyl-2-oxo-chromen-7-yl)oxymethyl]benzoate]",main Tm of MuRF1 central fragment,MuRF1 central fragment,52.5 °C
same,LV infarct size,"[1]; after 10 weeks of intervention, histology",27.1 ± 2.9%
same,Heart-to-body weight,[1]; [4],7.52 ± 0.57 mg/g
same,Lung weight (wet/dry),[1]; [4],4.47 ± 0.10
same,LVEDD,[1]; [5],5.9 ± 0.2 mm
same,LVEF,[1]; [5],21.1 ± 2.5 %
same,LVESD,[1]; [5],5.3 ± 0.2 mm
same,LVFS,[1]; [5],9.9 ± 1.2 %
same,decay on storage,[2],no trace of decay
same,contractile dysfunction of the diaphragm (shortening velocity and power),[3],essentially prevented
